In ChEMBL document CHEMBL4007430, “Synthesis and Cytostatic and Antiviral Profiling of Thieno-Fused 7-Deazapurine Ribonucleosides” (J Med Chem, 2017):

Target: Adenosine kinase (Homo sapiens, UniProt P55263)
Test: Drug level assessed as human ADK-mediated compound formation treated with adenosine at 50 uM after 30 mins by HPLC analysis
Format: ADME
Conditions: 0.5 h

Sequence of Adenosine kinase (P55263 whole entry): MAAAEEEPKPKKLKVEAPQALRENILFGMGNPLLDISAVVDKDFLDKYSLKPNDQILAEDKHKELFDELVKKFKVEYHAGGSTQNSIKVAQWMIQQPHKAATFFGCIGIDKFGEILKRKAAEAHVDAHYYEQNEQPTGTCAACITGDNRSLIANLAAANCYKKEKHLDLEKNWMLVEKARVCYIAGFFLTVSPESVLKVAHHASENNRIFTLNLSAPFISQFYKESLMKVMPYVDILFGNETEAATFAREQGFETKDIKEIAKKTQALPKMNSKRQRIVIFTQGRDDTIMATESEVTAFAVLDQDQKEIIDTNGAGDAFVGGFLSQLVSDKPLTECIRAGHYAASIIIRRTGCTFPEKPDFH

Drug metabolism: Metabolite_Detected
SMILES: Nc1ncnc2c1ncn2[C@@H]1O[C@H](COP(=O)(O)O)[C@@H](O)[C@H]1O [ADENOSINE PHOSPHATE]
